Test results reported in patent US10918891B2, “Cosmetic treatment method for the skin” (SYNTIVIA, priority 2016, dated 2021).

Assays:
[1] = tested on: NativeSkin® skin explants (Genoskin); experiment: Breaks in the DNA (γ-H2AX marking) of NativeSkin skin explant ex vivo after UVA irradiation; type: cell-based, human; details: composition 0.9 mmol/L topical, 60 J/cm^2 UVA every day for 3 days, n=10 images, FIG. 7
Procedure: (§1) The test was carried out on NativeSkin® skin explants (Genoskin), a biopsy of skin bathed in a solid, nourishing matrix while its epidermal surface is preserved in contact with the air. The biopsy is firmly anchored in the matrix and sealed in order to prevent any lateral diffusion of formulation intended for topical application.
(§2) The study was carried out on a donor (phototype 2) under the following conditions.
(§3) The compounds tested are implemented in a composition containing them at 0.9 mmol/L in a mixture of Carbopol® (0.5% p/p), DMSO (0.1% p/p) and H2O (qsp 100%).
(§4) The samples are irradiated at 60 J/cm^2 UVA every day for 3 days. A treatment is carried out for 24 h before the irradiation, by application of the composition tested onto the sample (deposition of 40 μl of composition onto the stratum corneum), then a post-treatment of 24 h after the irradiation, in the same manner.
(§5) A Control of the sample of skin non-irradiated and a Control of the sample of skin irradiated are also carried out, both with application of the vehicle alone (0.5% Carbopol®, 0.1% DMSO, H2O). The Control of the non-irradiated sample of skin is introduced into the irradiator in a sheet of aluminium, in such a way as to protect it against UVs.
(§6) The samples are sampled, cut (according to the conventional method of cryo-sectioning implementing paraffin and freezing) and fixed in 1 ml of formalin for 24 h.
(§7) The explants are then included in paraffin and sections of 5 μm are made.
The slides obtained are also marked by immunohistochemistry with the biomarker γ-H2Ax.
(§8) The analysis of the marking is carried out with a DM5000B fluorescence microscope (Leica Microsystems) and 10 images are acquired for each sample.
For the marking with γ-H2Ax, for each image, the total number of nuclei is detected with 4′,6-diamidino-2-phenylindole (dapi). In the same image, the number of nuclei having the marking is quantified. The ratio of the number of positive nuclei, multiplied by 100, to the number of total nuclei, is calculated, in order to obtain a percentage (=(positive nuclei*100)/total nuclei), n=10 per sample.
A statistical analysis is carried out with a student's test by comparing the samples to the control (p value[…], p value<0.05**, p value<0.005***, ns not significant).

[2] = tested on: NativeSkin® skin explants (Genoskin); experiment: Histological analysis (haematoxylin/eosin) of NativeSkin skin explant ex vivo after UVA irradiation; type: cell-based, human; details: composition 0.9 mmol/L topical, 60 J/cm^2 UVA every day for 3 days, FIG. 5
Procedure: as §1, §2, §3, §4, §5, §6, §7
The slides are then coloured with haematoxylin (basic compound marking the nuclei) and eosin (acidic compound marking the conjunctive tissue).
as §8

NHEK cells = experiment: Survival (WST1) of NHEK keratinocytes exposed to cigarette extract, comparison with caffeic acid; type: cell-based, human; details: compound 10 ppm pretreatment 24 h and treatment 24 h, cigarette extract 1/50, cigarette extract alone 55% survival, FIG. 4
Procedure: This study aims to compare the protective or repairing effect of the compounds according to the invention (Ia) and (Ib) with respect to the damage induced on the skin by a cigarette extract. For comparison, caffeic acid (supplier: Acros) is also tested. This acid forms a basic unit of the compounds (Ia) and (Ib) according to the invention.
The NHEK cells are inoculated in a 96-well plate in a suitable medium (Promocell), at a rate of 9000 cells per well, and incubated 24 h at 37° C. and 5% carbon dioxide.
The compounds to be tested are prepared as follows: • (Ia): 10 mg of compound+909 μL of DMSO • (Ib): 7 mg of compound+636 μL of DMSO • caffeic acid: 10 mg of compound+909 μL of DMSO
Each stock solution above is diluted 1000 times, to 10 ppm in the culture medium, then the solutions obtained are filtered by means of a nylon filter (0.22 μm). The final solutions are concentrated to 10 ppm in 0.1% DMSO.
Solutions at 20 ppm in 0.2% DMSO are also prepared in a similar manner, for dilution in the cigarette extract.
An extract of 20 cigarettes is prepared as indicated in example 14 above. This extract is then diluted to 1/50 in the culture medium; or to 2/50 in the culture medium, then to 1/2 in the culture medium, to which the compound to be tested is added at 20 ppm.
The cells are pretreated for 24 h with the compound to be tested at 10 ppm in the culture medium.
The cells are then treated with the cigarette extract diluted to 1/50th with or without the compound tested at 10 ppm for 24 h.
3 h before the end of the test, 10 μl of WST1 cellular proliferation reactant (Roche) are added into each well. The absorbance at 450 nm is measured before and after the addition of WST1 reactant, by means of a Multiskan® reader. The treated cells are compared to the untreated cells and to the cells exposed to the cigarette extract.

IL-8 = IL-8 assay (ELISA) in culture supernatants of NHEK after induction with IL-1β; type: cell-based, human; details: IL-1β 10 ng/ml 24 h, then substance 24 h, compound (Ia) 3 ppm, dexamethasone 0.4 ppm, CTL 0.23, CTL without IL-1β 0.06
Procedure: This study is carried out on normal human Keratinocytes (NHEK).
In this example, the anti-inflammatory properties of the compound (Ia) are evaluated by the assay of the IL-8, after the application of the cytokine IL-1β at 10 ng/ml onto NHEKs. IL-8 is a major inflammatory cytokine produced first of all during the inflammatory response of the keratinocytes. The quantification of the IL-8 in the culture supernatants allows an evaluation of the inflammatory state of the cells.
The IL-1β is added to the culture medium of the NHEKs at a rate of 10 ng/ml for 24 h. After incubation, the culture media are removed and replaced with culture media containing the compound (Ia) at 3 ppm. After 24 h of incubation, the supernatants are collected.
The reference anti-inflammatory element is dexamethasone (Sigma) used at 0.4 ppm. A control having undergone the same experimental conditions without the compound (Ia) (CTL), as well as a non-induced control (CTL without IL-1β), are also carried out.
The quantification of the IL-8 in 50 μl of the culture supernatants is measured by an ELISA test (human CXCL8/IL-8 Immunoassay, R&D Systems).
Each treatment is carried out in triplicate.

[3] = tested on: normal human Keratinocytes (NHEK); experiment: Reactive oxygen species (H2DCFDA probe) in NHEK after single UVA stress; type: cell-based; details: 24 h incubation; (Ia) 3 ppm, Trolox 20 ppm, Quercetin 18 ppm; UVA 10 J/cm2; normalised to viability (MTS); CTL UVA 289687.6, CTL without stress 16441.9
Procedure: The cells used for this example are normal human Keratinocytes (NHEK).
The antioxidant properties (neutralising the production of reactive oxygen species) of the compound (Ia) are evaluated after a single stress with UVAs on NHEKs, by a test based on the use of the fluorescent probe H2DCFDA on a triple culture.
H2DCFDA (2′-7′dichlorodihydrofluorescein diacetate, Fischer Scientific) is a probe that, after having diffused into the cell and after its acetate group has been split by intracellular esterases, can be oxidised by free radicals (H2O2) into DCF (2′-7′ dichlorofluorescein), a fluorescent compound. The production of the free radicals can thus be quantified by the level of fluorescence emitted by the oxidised probe. The more the cell produces free radicals, the higher the level of fluorescence detected.
After 24 hours of incubation with the compound (Ia) (3 ppm in an aqueous solution with 0.1% dimethylsulfoxide) or the reference elements, the cells are placed in the presence of the H2DCFDA probe at 3 ppm for 1 hour at 37° C., 5% CO2 in order to allow its intracellular diffusion.
The reference antioxidant elements are: Trolox ([…], Sigma), at 20 ppm and Quercetin (quercetin dihydrate, Sigma), at 18 ppm.
After one rinsing, the cells are subjected to a single stress with UVAs (in the absence of compound (Ia)) at a rate of 10 joules per square centimetre. The quantification of the fluorescence emitted (excitation: 485 nm; emission: 520 nm) is carried out immediately after the end of the UVA stress. […]
In order to provide a result representative of the cellular population of each condition after a single stress with UVAs, a cellular viability test (MTS) is carried out immediately after the quantification of the fluorescence emitted. The fluorescence values are thus normalised with respect to the cellular viabilities in order for it to be possible to compare the levels of fluorescence of the various conditions to each other.

| SMILES | percentage of nuclei positive for marking with γ-H2AX, compared with controls [1] | Morphology of the epidermis after UVA irradiation (histological analysis) [2] | % survival of the cells (NHEK cells) [%] | Quantification of the IL8 (optical density) (IL-8) | Assay of the fluorescence with H2DCFDA after irradiation of NHEKs with UVAs [3] |
| --- | --- | --- | --- | --- | --- |
| Cc1ncc(CO)c(CNC(=O)CCCC[C@@H]2CCSS2)c1O [Comp.1, reference compound] | level similar to the irradiated sample | phenotype of the irradiated sample is also found | – | – | – |
| COc1cc(/C=C/C(=O)NCc2c(CO)cnc(C)c2O)ccc1O [Compound (Ib), (E)-3-(4-hydroxy-3-methoxyphenyl)-N-((3-hydroxy-5-(hydroxymethyl)-2-methylpyridin-4-yl)-methyl)-acrylamide] | – | – | 76 | – | – |
| COc1ccc(/C=C/C(=O)NCc2c(CO)cnc(C)c2O)cc1O [Compound (Ic), (E)-3-(3-hydroxy-4-methoxyphenyl)-N-((3-hydroxy-5-(hydroxymethyl)-2-methylpyridin-4-yl)-methyl)-acrylamide] | same phenotype as the non-irradiated control sample | totally protected | – | – | – |
| Cc1ncc(CO)c(CNC(=O)/C=C/c2ccc(O)cc2)c1O [Compound (Id), (E)-N-((3-hydroxy-5-(hydroxymethyl)-2-methylpyridin-4-yl)-methyl)-3-(4-hydroxyphenyl)-acrylamide] | clearly reduced with respect to the irradiated control sample | partly protected | – | – | – |
| C[C@@H]1C[C@H]2[C@@H]3CCC4=CC(=O)C=C[C@]4(C)[C@@]3(F)[C@@H](O)C[C@]2(C)[C@@]1(O)C(=O)CO [Dexamethasone, dexamethasone, reference compound] | – | – | – | 0.13 | – |
| O.O.O=c1c(O)c(-c2ccc(O)c(O)c2)oc2cc(O)cc(O)c12 [Quercetin, quercetin dihydrate, reference compound] | – | – | – | – | 207589.6 |
| O=C(O)/C=C/c1ccc(O)c(O)c1 [caffeic acid, reference compound] | level similar to the irradiated sample | phenotype of the irradiated sample is also found | 73 | – | – |
| Cc1ncc(CO)c(CN)c1O [pyridoxamine, reference compound] | level similar to the irradiated sample | phenotype of the irradiated sample is also found | – | – | – |
